Data: ChEMBL document CHEMBL3885881, “DrugMatrix”
Values joined by “and” are separate entries in the source; they are usually repeats but may differ in a detail not shown here. Equal values may be shown once.

Species on record: Rattus norvegicus
Assay: DrugMatrix - Regimen: Daily Repeat
Type: toxicity, organism-based, Sprague-Dawley
Design: regimen Daily Repeat, gender Male, age 6-8 weeks
Details: in vivo, ip, route intraperitoneal, vehicle 100 % SALINE; for ABSOLUTE BASOPHIL / ABSOLUTE EOSINOPHIL / ABSOLUTE LYMPHOCYTE / ABSOLUTE MONOCYTE / ABSOLUTE SEGMENTED NEUTROPHIL / BASOPHIL / EOSINOPHIL / ERYTHROCYTE COUNT / HEMATOCRIT / HEMOGLOBIN / LEUKOCYTE COUNT / LYMPHOCYTE / MEAN CORPUSCULAR HEMOGLOBIN / MEAN CORPUSCULAR HEMOGLOBIN CONCENTRATION / MEAN CORPUSCULAR VOLUME / MONOCYTE / NEUTROPHIL / PLATELET COUNT: tissue Blood; for ALANINE AMINOTRANSFERASE / ALBUMIN / ALKALINE PHOSPHATASE / ASPARTATE AMINOTRANSFERASE / BLOOD UREA NITROGEN / CARBON DIOXIDE / CHLORIDE / CHOLESTEROL / CREATINE PHOSPHOKINASE / CREATININE / GLUCOSE / LACTATE DEHYDROGENASE / LIPASE / PHOSPHORUS / POTASSIUM / SODIUM / TOTAL BILIRUBIN / TOTAL PROTEIN / URIC ACID: tissue Plasma
[1] = 0 mg/kg, 120 h, dose level Control, time 5 day
[2] = 0 mg/kg, […], dose level Control, time 14 day
[3] = 0 mg/kg, […], dose level Control, time 28 day
[4] = 40 mg/kg, 120 h, dose level High, time 5 day
[5] = 40 mg/kg, […], dose level High, time 14 day
[6] = 40 mg/kg, […], dose level High, time 28 day

SMILES: NC[C@H]1O[C@H](O[C@H]2[C@H](O)[C@@H](O[C@H]3O[C@H](CO)[C@@H](O)[C@H](N)[C@H]3O)[C@H](N)C[C@@H]2N)[C@H](N)C[C@@H]1O [TOBRAMYCIN]
- ABSOLUTE BASOPHIL [1]: 32 cells/µL
- ABSOLUTE EOSINOPHIL [1]: 110 cells/µL
- ABSOLUTE LYMPHOCYTE [1]: 6630 cells/µL
- ABSOLUTE MONOCYTE [1]: 140 cells/µL
- ABSOLUTE SEGMENTED NEUTROPHIL [1]: 1170 cells/µL
- BASOPHIL [1]: 0.38% and 0.35%
- EOSINOPHIL [1]: 1.28% and 0.62%
- ERYTHROCYTE COUNT [1]: 7.45 x10E6/uL and 7.26 x10E6/uL
- HEMATOCRIT [1]: 45.74% and 47.97%
- HEMOGLOBIN [1]: 14.72 G/DL and 15.38 G/DL
- LEUKOCYTE COUNT [1]: 8.11 x10E3/uL and 8.68 x10E3/uL
- LYMPHOCYTE [1]: 81.3% and 86.77%
- MEAN CORPUSCULAR HEMOGLOBIN [1]: 19.76 pg and 21.18 pg
- MEAN CORPUSCULAR HEMOGLOBIN CONCENTRATION [1]: 32.16 G/DL and 32.05 G/DL
- MEAN CORPUSCULAR VOLUME [1]: 61.38 fL and 66.15 fL
- MONOCYTE [1]: 1.76% and 1.57%
- NEUTROPHIL [1]: 14.9% and 9.53%
- PLATELET COUNT [1]: 1322.4 x10E3/uL and 1786 x10E3/uL
- ALANINE AMINOTRANSFERASE [1]: 25.8 u/L and 20.5 u/L
- ALBUMIN [1]: 3.64 G/DL and 4.35 G/DL
- ALKALINE PHOSPHATASE [1]: 233.6 u/L and 300 u/L
- ASPARTATE AMINOTRANSFERASE [1]: 81.4 u/L and 86.75 u/L
- BLOOD UREA NITROGEN [1]: 14.4 mg/dL and 17 mg/dL
- CARBON DIOXIDE [1]: 29 mmol/L
- CHLORIDE [1]: 105.6 MEQ/L and 106.25 MEQ/L
- CHOLESTEROL [1]: 69.2 mg/dL and 51.25 mg/dL
- CREATINE PHOSPHOKINASE [1]: 384.75 u/L
- CREATININE [1]: 0.56 mg/dL and 0.47 mg/dL
- GLUCOSE [1]: 125.4 mg/dL and 128.75 mg/dL
- LACTATE DEHYDROGENASE [1]: 105.4 u/L and 145 u/L
- LIPASE [1]: 22.4 u/L and 13.25 u/L
- PHOSPHORUS [1]: 11.48 mg/dL and 11.8 mg/dL
- POTASSIUM [1]: 5.52 MEQ/L and 6.58 MEQ/L
- SODIUM [1]: 147 MEQ/L and 151 MEQ/L
- TOTAL BILIRUBIN [1]: 0.2 mg/dL and 0.33 mg/dL
- TOTAL PROTEIN [1]: 6.1 G/DL and 6.53 G/DL
- URIC ACID [1]: 1.06 mg/dL and 1.95 mg/dL
- ABSOLUTE BASOPHIL [2]: 130 cells/µL
- ABSOLUTE EOSINOPHIL [2]: 140 cells/µL
- ABSOLUTE LYMPHOCYTE [2]: 13500 cells/µL
- ABSOLUTE MONOCYTE [2]: 400 cells/µL
- ABSOLUTE SEGMENTED NEUTROPHIL [2]: 2330 cells/µL
- HEMATOCRIT [2]: 45.98%
- ABSOLUTE BASOPHIL [3]: 91 cells/µL
- ABSOLUTE EOSINOPHIL [3]: 110 cells/µL
- ABSOLUTE LYMPHOCYTE [3]: 9910 cells/µL
- ABSOLUTE MONOCYTE [3]: 210 cells/µL
- ABSOLUTE SEGMENTED NEUTROPHIL [3]: 1560 cells/µL
- BASOPHIL [3]: 0.77%
- EOSINOPHIL [3]: 0.92%
- ERYTHROCYTE COUNT [3]: 8.21 x10E6/uL
- HEMATOCRIT [3]: 47.53%
- HEMOGLOBIN [3]: 15.65 G/DL
- LEUKOCYTE COUNT [3]: 11.91 x10E3/uL
- LYMPHOCYTE [3]: 83.34%
- MEAN CORPUSCULAR HEMOGLOBIN [3]: 19.07 pg
- MEAN CORPUSCULAR HEMOGLOBIN CONCENTRATION [3]: 32.93 G/DL
- MEAN CORPUSCULAR VOLUME [3]: 57.9 fL
- MONOCYTE [3]: 1.68%
- NEUTROPHIL [3]: 12.97%
- PLATELET COUNT [3]: 1323.8 x10E3/uL
- CARBON DIOXIDE [2]: 25 mmol/L
- ALANINE AMINOTRANSFERASE [3]: 30 u/L
- ALBUMIN [3]: 3.71 G/DL
- ALKALINE PHOSPHATASE [3]: 186.8 u/L
- ASPARTATE AMINOTRANSFERASE [3]: 78.2 u/L
- BLOOD UREA NITROGEN [3]: 14.2 mg/dL
- CHLORIDE [3]: 105.4 MEQ/L
- CHOLESTEROL [3]: 44.9 mg/dL
- CREATINE PHOSPHOKINASE [3]: 334.3 u/L
- CREATININE [3]: 0.6 mg/dL
- GLUCOSE [3]: 147.2 mg/dL
- LACTATE DEHYDROGENASE [3]: 123.1 u/L
- LIPASE [3]: 9.6 u/L
- PHOSPHORUS [3]: 10.01 mg/dL
- POTASSIUM [3]: 6.57 MEQ/L
- SODIUM [3]: 149.5 MEQ/L
- TOTAL BILIRUBIN [3]: 0.21 mg/dL
- TOTAL PROTEIN [3]: 6.66 G/DL
- URIC ACID [3]: 1.26 mg/dL
- ABSOLUTE BASOPHIL [4]: 78 cells/µL
- ABSOLUTE EOSINOPHIL [4]: 120 cells/µL
- ABSOLUTE LYMPHOCYTE [4]: 8040 cells/µL
- ABSOLUTE MONOCYTE [4]: 210 cells/µL
- ABSOLUTE SEGMENTED NEUTROPHIL [4]: 920 cells/µL
- BASOPHIL [4]: 0.78% and 0.42%
- EOSINOPHIL [4]: 1.32% and 0.7%
- ERYTHROCYTE COUNT [4]: 7.61 x10E6/uL and 7.29 x10E6/uL
- HEMATOCRIT [4]: 45.66% and 46.27%
- HEMOGLOBIN [4]: 15.22 G/DL and 14.92 G/DL
- LEUKOCYTE COUNT [4]: 9.41 x10E3/uL and 6.74 x10E3/uL
- LYMPHOCYTE [4]: 84.78% and 87.65%
- MEAN CORPUSCULAR HEMOGLOBIN [4]: 20.04 pg and 20.48 pg
- MEAN CORPUSCULAR HEMOGLOBIN CONCENTRATION [4]: 33.38 G/DL and 32.25 G/DL
- MEAN CORPUSCULAR VOLUME [4]: 60.02 fL and 63.45 fL
- MONOCYTE [4]: 2.34% and 1.52%
- NEUTROPHIL [4]: 10.36% and 8.62%
- PLATELET COUNT [4]: 1436.6 x10E3/uL and 1523 x10E3/uL
- ALANINE AMINOTRANSFERASE [4]: 32.4 u/L and 20.5 u/L
- ALBUMIN [4]: 3.42 G/DL and 4.17 G/DL
- ALKALINE PHOSPHATASE [4]: 217.6 u/L and 314.25 u/L
- ASPARTATE AMINOTRANSFERASE [4]: 80.2 u/L and 91.75 u/L
- BLOOD UREA NITROGEN [4]: 14.8 mg/dL and 15.25 mg/dL
- CARBON DIOXIDE [4]: 25.75 mmol/L
- CHLORIDE [4]: 109.8 MEQ/L and 108.25 MEQ/L
- CHOLESTEROL [4]: 58.4 mg/dL and 56 mg/dL
- CREATINE PHOSPHOKINASE [4]: 257.6 u/L and 601.5 u/L
- CREATININE [4]: 0.52 mg/dL and 0.5 mg/dL
- GLUCOSE [4]: 127.2 mg/dL and 121.75 mg/dL
- LACTATE DEHYDROGENASE [4]: 84.6 u/L and 185.75 u/L
- LIPASE [4]: 17 u/L and 8.25 u/L
- PHOSPHORUS [4]: 10.22 mg/dL and 12.03 mg/dL
- POTASSIUM [4]: 6.26 MEQ/L and 5.68 MEQ/L
- SODIUM [4]: 151.2 MEQ/L and 152 MEQ/L
- TOTAL BILIRUBIN [4]: 0.14 mg/dL and 0.3 mg/dL
- TOTAL PROTEIN [4]: 5.84 G/DL and 6.38 G/DL
- URIC ACID [4]: 0.98 mg/dL and 1.82 mg/dL
- ABSOLUTE BASOPHIL [5]: 120 cells/µL
- ABSOLUTE EOSINOPHIL [5]: 60 cells/µL
- ABSOLUTE LYMPHOCYTE [5]: 7970 cells/µL
- ABSOLUTE MONOCYTE [5]: 180 cells/µL
- ABSOLUTE SEGMENTED NEUTROPHIL [5]: 970 cells/µL
- ABSOLUTE BASOPHIL [6]: 110 cells/µL
- ABSOLUTE EOSINOPHIL [6]: 140 cells/µL
- ABSOLUTE LYMPHOCYTE [6]: 11000 cells/µL
- ABSOLUTE MONOCYTE [6]: 270 cells/µL
- ABSOLUTE SEGMENTED NEUTROPHIL [6]: 2010 cells/µL
- BASOPHIL [6]: 0.75%
- EOSINOPHIL [6]: 1.01%
- ERYTHROCYTE COUNT [6]: 8.16 x10E6/uL
- HEMATOCRIT [6]: 47.35%
- HEMOGLOBIN [6]: 15.56 G/DL
- LEUKOCYTE COUNT [6]: 13.61 x10E3/uL
- LYMPHOCYTE [6]: 82.08%
- MEAN CORPUSCULAR HEMOGLOBIN [6]: 19.08 pg
- MEAN CORPUSCULAR HEMOGLOBIN CONCENTRATION [6]: 32.87 G/DL
- MEAN CORPUSCULAR VOLUME [6]: 58.02 fL
- MONOCYTE [6]: 1.93%
- NEUTROPHIL [6]: 13.77%
- PLATELET COUNT [6]: 1300.9 x10E3/uL
- CARBON DIOXIDE [5]: 24 mmol/L
- ALANINE AMINOTRANSFERASE [6]: 28.5 u/L
- ALBUMIN [6]: 3.56 G/DL
- ALKALINE PHOSPHATASE [6]: 137.2 u/L
- ASPARTATE AMINOTRANSFERASE [6]: 79.3 u/L
- BLOOD UREA NITROGEN [6]: 16.3 mg/dL
- CHLORIDE [6]: 108.2 MEQ/L
- CHOLESTEROL [6]: 59.4 mg/dL
- CREATINE PHOSPHOKINASE [6]: 132.4 u/L
- CREATININE [6]: 0.68 mg/dL
- GLUCOSE [6]: 127.2 mg/dL
- LACTATE DEHYDROGENASE [6]: 83.6 u/L
- LIPASE [6]: 12.4 u/L
- PHOSPHORUS [6]: 8.3 mg/dL
- POTASSIUM [6]: 5.48 MEQ/L
- SODIUM [6]: 152.3 MEQ/L
- TOTAL BILIRUBIN [6]: 0.18 mg/dL
- TOTAL PROTEIN [6]: 6.53 G/DL
- URIC ACID [6]: 0.96 mg/dL
